The target in this experiment is T1, human GR (Homo sapiens, UniProt P04150).
T1 sequence (P04150 1-777): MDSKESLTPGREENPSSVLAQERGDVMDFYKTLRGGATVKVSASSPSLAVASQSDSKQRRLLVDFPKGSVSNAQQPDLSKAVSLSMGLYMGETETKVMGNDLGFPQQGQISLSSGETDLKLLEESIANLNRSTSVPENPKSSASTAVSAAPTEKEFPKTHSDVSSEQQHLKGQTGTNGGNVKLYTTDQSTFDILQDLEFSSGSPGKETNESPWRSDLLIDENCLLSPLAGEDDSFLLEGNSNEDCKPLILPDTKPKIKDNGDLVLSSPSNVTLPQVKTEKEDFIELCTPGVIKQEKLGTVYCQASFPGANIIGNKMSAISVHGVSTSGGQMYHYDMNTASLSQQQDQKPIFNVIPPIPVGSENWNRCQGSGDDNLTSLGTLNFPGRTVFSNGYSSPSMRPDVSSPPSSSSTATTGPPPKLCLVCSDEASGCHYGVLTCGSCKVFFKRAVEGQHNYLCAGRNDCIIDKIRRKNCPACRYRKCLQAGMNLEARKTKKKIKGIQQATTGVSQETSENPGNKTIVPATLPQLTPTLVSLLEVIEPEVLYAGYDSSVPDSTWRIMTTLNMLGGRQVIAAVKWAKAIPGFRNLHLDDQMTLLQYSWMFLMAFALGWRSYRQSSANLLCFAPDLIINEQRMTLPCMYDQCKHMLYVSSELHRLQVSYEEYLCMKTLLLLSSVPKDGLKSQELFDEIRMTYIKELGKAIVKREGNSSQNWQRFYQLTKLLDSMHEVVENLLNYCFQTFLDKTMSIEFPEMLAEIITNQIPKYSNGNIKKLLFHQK
Description: Trans-Activation Modulation of Glucocorticoid Receptor (GRAMMER), MMTV-LUC reporter, agonist mode. Set-up: endogenous in cells. The settings on record: for Emax: A549, A549 cells, maximum activity, read-out: Transactivation A549 Cells GRAMMER Emax; for EC50: A549 cells, inflection point, read-out: Transactivation A549 Cells GRAMMER IP. In kind it is cell-based. In short, it runs like this: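 Readout is luciferase from a modified MMTV LTR promoter after 24 h compound exposure alongside 10 nM dexamethasone (100% activity reference), DMSO ≤1%.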

Turning to `C[C@]12Cc3cnn(-c4ccc(F)cc4)c3C=C1CC[C@@H]2CN(CCc1ccccc1O)S(=O)(=O)Cc1cccc(C(F)(F)F)c1` [Example 122, N-{[(4αR,5S)-1-(4-fluorophenyl)-4α-methyl-1,4,4α,5,6,7-hexahydrocyclopenta[f]indazol-5-yl]methyl}-N-[2-(2-hydroxyphenyl)ethyl]-1-[3-(trifluoromethyl)phenyl]methanesulfonamide], the Emax (usually the greatest response seen or fitted, relative to the assay's reference) is 8.9% and the EC50 turned out to be 0.502 µM.

Consider `Cc1noc(C)c1S(=O)(=O)N(CCc1ccccc1O)C[C@H]1CCC2=Cc3c(cnn3-c3ccc(F)cc3)C[C@@]21C` [Example 123, N-{[(4αR,5S)-1-(4-fluorophenyl)-4α-methyl-1,4,4α,5,6,7-hexahydrocyclopenta[f]indazol-5-yl]methyl}-N-[2-(2-hydroxyphenyl)ethyl]-3,5-dimethylisoxazole-4-sulfonamide], for which the Emax was 65.4% and the EC50 was determined as 0.195 µM.

Turning to `C[C@]12Cc3cnn(-c4ccc(F)cc4)c3C=C1CC[C@@H]2CN(CCc1ccccc1F)S(=O)(=O)Cc1cccnc1` [Example 124, N-[2-(2-fluorophenyl)ethyl]-N-{[(4αR,5S)-1-(4-fluorophenyl)-4α-methyl-1,4,4α,5,6,7-hexahydrocyclopenta[f]indazol-5-yl]methyl}-1-pyridin-3-ylmethanesulfonamide], the Emax was 99.2% and the EC50 was found to be 0.218 µM.

Consider `COc1ccccc1CCN(C[C@H]1CCC2=Cc3c(cnn3-c3ccc(F)cc3)C[C@@]21C)S(=O)(=O)Cc1cccnc1` [Example 125, N-{[(4αR,5S)-1-(4-fluorophenyl)-4α-methyl-1,4,4α,5,6,7-hexahydrocyclopenta[f]indazol-5-yl]methyl}-N-[2-(2-methoxyphenyl)ethyl]-1-pyridin-3-ylmethanesulfonamide], for which the Emax was found to be 21.2% and the EC50 was determined as 0.508 µM.

In the case of `COc1cccc(CCN(C[C@H]2CCC3=Cc4c(cnn4-c4ccc(F)cc4)C[C@@]32C)S(=O)(=O)CC(F)(F)F)c1` [Example 126, 2,2,2-trifluoro-N-{[(4αR,5S)-1-(4-fluorophenyl)-4α-methyl-1,4,4α,5,6,7-hexahydrocyclopenta[f]indazol-5-yl]methyl}-N-[2-(3-methoxyphenyl)ethyl]ethanesulfonamide], the Emax was 78.2% and the EC50 turned out to be 0.227 µM.

As to `COc1ccc(CCN(C[C@H]2CCC3=Cc4c(cnn4-c4ccc(F)cc4)C[C@@]32C)S(=O)(=O)CC(F)(F)F)cc1` [Example 127, 2,2,2-trifluoro-N-{[(4αR,5S)-1-(4-fluorophenyl)-4α-methyl-1,4,4α,5,6,7-hexahydrocyclopenta[f]indazol-5-yl]methyl}-N-[2-(4-methoxyphenyl)ethyl]ethanesulfonamide], the Emax stood at 67.9% and the EC50 came to 0.232 µM.

For `C[C@]12Cc3cnn(-c4ccc(F)cc4)c3C=C1CC[C@@H]2CN(CCc1ccccn1)S(=O)(=O)CC(F)(F)F` [Example 128, 2,2,2-trifluoro-N-{[(4αR,5S)-1-(4-fluorophenyl)-4α-methyl-1,4,4α,5,6,7-hexahydrocyclopenta[f]indazol-5-yl]methyl}-N-(2-pyridin-2-ylethyl)ethanesulfonamide], the Emax was 69.1% and the EC50 turned out to be 0.252 µM.

For the compound `C[C@]12Cc3cnn(-c4ccc(F)cc4)c3C=C1CC[C@@H]2CN(CCc1ccncc1)S(=O)(=O)CC(F)(F)F` [Example 129, 2,2,2-trifluoro-N-{[(4αR,5S)-1-(4-fluorophenyl)-4α-methyl-1,4,4α,5,6,7-hexahydrocyclopenta[f]indazol-5-yl]methyl}-N-(2-pyridin-4-ylethyl)ethanesulfonamide], the Emax worked out at 67.2% and the EC50 is 0.948 µM.

Take `C[C@]12Cc3cnn(-c4ccc(F)cc4)c3C=C1CC[C@@H]2CN(CCc1ccc(O)cc1)S(=O)(=O)CC(F)(F)F` [Example 130, 2,2,2-trifluoro-N-{[(4αR,5S)-1-(4-fluorophenyl)-4α-methyl-1,4,4α,5,6,7-hexahydrocyclopenta[f]indazol-5-yl]methyl}-N-[2-(4-hydroxyphenyl)ethyl]ethanesulfonamide]: the Emax is 66.1% and the EC50 was found to be 0.369 µM.

As to `C[C@]12Cc3cnn(-c4ccc(F)cc4)c3C=C1CC[C@@H]2CN(CCc1ccccc1O)S(=O)(=O)Cc1cccnc1` [Example 131, N-{[(4αR,5S)-1-(4-fluorophenyl)-4α-methyl-1,4,4α,5,6,7-hexahydrocyclopenta[f]indazol-5-yl]methyl}-N-[2-(2-hydroxyphenyl)ethyl]-1-pyridin-3-ylmethanesulfonamide], the Emax came to 37.4% and the EC50 came to 0.571 µM.

Regarding `C[C@]12Cc3cnn(-c4ccc(F)cc4)c3C=C1CC[C@@H]2CN(Cc1cccnn1)S(=O)(=O)CC(F)(F)F` [Example 132, 2,2,2-trifluoro-N-{[(4αR,5S)-1-(4-fluorophenyl)-4α-methyl-1,4,4α,5,6,7-hexahydrocyclopenta[f]indazol-5-yl]methyl}-N-(pyridazin-3-ylmethyl)ethanesulfonamide], the Emax turned out to be 23.2% and the EC50 came out at 0.421 µM.

In the case of `C[C@]12Cc3cnn(-c4ccc(F)cc4)c3C=C1CC[C@@H]2CN(CC(O)C(F)F)S(=O)(=O)CC(F)(F)F` (stereo partly drawn) [Example 133, N-(3,3-difluoro-2-hydroxypropyl)-2,2,2-trifluoro-N-{[(4αR,5S)-1-(4-fluorophenyl)-4α-methyl-1,4,4α,5,6,7-hexahydrocyclopenta[f]indazol-5-yl]methyl}ethanesulfonamide], the maximum response (Emax) amounted to 73.4% and the EC50 came out at 0.0675 µM.

Consider `C[C@]12Cc3cnn(-c4ccc(F)cc4)c3C=C1CC[C@@H]2CN(CC(OS(=O)(=O)CC(F)(F)F)C(F)F)S(=O)(=O)CC(F)(F)F` (stereo partly drawn) [Example 134, 2,2-difluoro-1-({{[(4αR,5S)-1-(4-fluorophenyl)-4α-methyl-1,4,4α,5,6,7-hexahydrocyclopenta[f]indazol-5-yl]methyl}[(2,2,2-trifluoroethyl)sulfonyl]amino}methyl)ethyl 2,2,2-trifluoroethanesulfonate], for which the Emax amounted to 89.2% and the EC50 stood at 0.216 µM.

On to `C[C@]12Cc3cnn(-c4ccc(F)cc4)c3C=C1CC[C@@H]2CN(CC1(O)CC1)S(=O)(=O)CC(F)(F)F` [Example 135, 2,2,2-trifluoro-N-{[(4αR,5S)-1-(4-fluorophenyl)-4α-methyl-1,4,4α,5,6,7-hexahydrocyclopenta[f]indazol-5-yl]methyl}-N-[(1-hydroxycyclopropyl)methyl]ethanesulfonamide], for which the Emax came out at 68.8% and the EC50 came out at 0.127 µM.

`C[C@]12Cc3cnn(-c4ccc(F)cc4)c3C=C1CC[C@@H]2CN(CC1(OS(=O)(=O)CC(F)(F)F)CC1)S(=O)(=O)CC(F)(F)F` [Example 136, 1-({{[(4αR,5S)-1-(4-fluorophenyl)-4α-methyl-1,4,4α,5,6,7-hexahydrocyclopenta[f]indazol-5-yl]methyl}[(2,2,2-trifluoroethyl)sulfonyl]amino}methyl)cyclopropyl 2,2,2-trifluoroethanesulfonate]: the maximal response (Emax) worked out at 58.8% and the EC50 worked out at 0.279 µM.

As to `C[C@]12Cc3cnn(-c4ccccc4)c3C=C1CC[C@@H]2CN(CCc1ccccc1F)S(=O)(=O)CC(F)(F)F` [Example 137, 2,2,2-trifluoro-N-[2-(2-fluorophenyl)ethyl]-N-{[(4αR,5S)-4α-methyl-1-phenyl-1,4,4α,5,6,7-hexahydrocyclopenta[f]indazol-5-yl]methyl}ethanesulfonamide], the Emax amounted to 73.6% and the EC50 turned out to be 0.143 µM.
